Reference: patent publication US11655239B2 (SHANGHAI INSTITUTE OF MATERIAL MEDICA, CHINESE ACADEMY OF …, priority 2019, dated 2023)
pIC50: −log10 of the molar value.

Tests used:
[1] = biological target: RET (Homo sapiens (Human), UniProt P07949); assay: Enzyme selectivity test (ELISA), RET; format: biochemical
Method: 1) Enzyme reaction substrate Poly(Glu, Tyr) 4:1 was diluted to 20 μg/mL with potassium-free PBS (10 mM sodium phosphate buffer, 150 mM NaCl, pH 7.2-7.4), and the microtiter plate was coated with 125 μL/well and placed at 37° C. for 12-16 hours of reaction. The liquid in the well was discard. The plate was washed three times with T-PBS (potassium-free PBS containing 0.1% Tween-20, 200 μL/well), 5 minutes each time. The ELISA plate was dried in an oven at 37° C. for 1 to 2 hours.
2) Reaction buffer (50 mM HEPES pH 7.4, 50 mM MgCl2, 0.5 mM MnCl2, 0.2 mM Na3VO4, 1 mM DTT) diluted ATP solution (49 μL) was added to each well, 1 μL of the compound to be tested was added to each well, and then 50 μL of DDR2 kinase domain recombinant protein diluted in the reaction buffer was added to start the reaction. Two control wells without ATP were set in each experiment. The plate placed on a shaker (100 rpm) at 37° C. for 1 hour of reaction. The liquid in the well was discarded and the plate was washed three times with T-PBS.
3) Antibody PY99 dilution solution (the antibody was diluted 1:500 with T-PBS containing BSA 5 mg/mL) was added at 100 μL/well, and shaken on a shaker at 37° C. for 0.5 hour of reaction. The liquid in the well was discarded and the plate was washed three times with T-PBS.
4) Horseradish peroxidase labeled goat anti-murine secondary antibody dilution solution (the antibody is diluted 1:2000 with T-PBS containing BSA 5 mg/ml) was added at 100 μL/well, and shaken on a shaker at 37° C. for 0.5 hour of reaction. The liquid in the well was discarded and the plate was washed three times with T-PBS.
5) 2 mg/ml of OPD color developing solution [diluted with 0.1 M citric acid-sodium citrate buffer (pH=5.4) containing 0.03% H2O2] was added at 100 μL/well and reacted for 1 to 10 minutes at 25° C. in the dark.
6) 2M H2SO4 was added at 50 μL/well to stop the reaction, and a tunable wavelength microplate reader VERSAmax was used for reading at a wavelength of 490 nm.
The IC50 value was obtained by four-parameter regression using the software that came with the microplate reader. […]

[2] = test system: MRC-5 induced by TGF-β1; assay: Activation of MRC-5 induced by TGF-β1; format: cell-based, human; conditions: levels of Fibronectin, α-SMA, Collagen1-α1
Method: 1) Preparation of cell protein samples: the cell culture liquid was discarded, wash was performed once with PBS, and samples were collected by adding 1×SDS-Loading. after the samples were collected, they were placed in a metal bath at 100° C., and the samples were boiled for 10 minutes, and then the samples were stored at 4° C. for waiting for subsequent test.
2) Gel preparation and sample loading: according to the molecular weight of the detected protein, different concentrations of separation gel were selected. after filling the 1× electrophoresis buffer, an equal volume of protein sample 4 μl and protein marker were added on the far left to right in sequence.
When the sample was in the concentrated gel, the voltage was set to 80 V; when the sample was electrophoresed to the separation gel, the voltage was increased to 120 V until the bromophenol blue was electrophoresed to reach the bottom of the gel, and the electrophoresis ended. […]
8) Secondary antibodies: the film with the primary antibodies was rewarmed and incubated for about half an hour, and then the primary antibodies were recovered and the film was washed quickly with TBST solution 3 times, 10 minutes each time. […] The dilution ratio of the secondary antibody dedicated for DDR2 was 1:5000; The dilution ratio for the rest of the secondary antibodies were 1:8000, ready for use. […]

RET, sequence (P07949 29-1114, species assumed): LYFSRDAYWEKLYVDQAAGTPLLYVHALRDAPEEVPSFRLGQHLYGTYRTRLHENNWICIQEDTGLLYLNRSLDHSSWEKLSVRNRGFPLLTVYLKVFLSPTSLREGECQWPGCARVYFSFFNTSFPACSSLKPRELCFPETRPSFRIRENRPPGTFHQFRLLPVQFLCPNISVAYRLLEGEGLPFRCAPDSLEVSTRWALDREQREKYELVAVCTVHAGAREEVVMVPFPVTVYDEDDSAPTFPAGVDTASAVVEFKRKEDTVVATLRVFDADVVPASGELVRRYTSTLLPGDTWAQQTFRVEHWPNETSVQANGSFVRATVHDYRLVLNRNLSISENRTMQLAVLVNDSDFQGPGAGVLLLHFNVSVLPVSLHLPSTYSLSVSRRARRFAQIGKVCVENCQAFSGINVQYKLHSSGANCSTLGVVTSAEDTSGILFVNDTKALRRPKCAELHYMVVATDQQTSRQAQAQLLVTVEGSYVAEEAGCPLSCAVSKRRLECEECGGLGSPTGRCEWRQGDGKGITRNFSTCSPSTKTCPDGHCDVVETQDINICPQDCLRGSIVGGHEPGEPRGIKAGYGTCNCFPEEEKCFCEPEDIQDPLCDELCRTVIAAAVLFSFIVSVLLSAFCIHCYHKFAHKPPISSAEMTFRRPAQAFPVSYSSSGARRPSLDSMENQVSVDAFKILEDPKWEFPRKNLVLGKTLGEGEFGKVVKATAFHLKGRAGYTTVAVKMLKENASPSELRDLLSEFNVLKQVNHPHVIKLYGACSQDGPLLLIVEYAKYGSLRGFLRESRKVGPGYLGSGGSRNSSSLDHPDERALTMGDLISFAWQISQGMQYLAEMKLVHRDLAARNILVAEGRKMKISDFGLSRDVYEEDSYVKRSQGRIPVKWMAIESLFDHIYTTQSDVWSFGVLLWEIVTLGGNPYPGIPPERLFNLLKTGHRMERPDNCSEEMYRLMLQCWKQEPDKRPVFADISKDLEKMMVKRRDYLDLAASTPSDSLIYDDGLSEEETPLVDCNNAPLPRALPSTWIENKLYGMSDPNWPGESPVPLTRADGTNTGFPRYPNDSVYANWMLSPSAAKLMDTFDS

## O=C(Nc1cccc(C(F)(F)F)c1)c1ccc(C2CC2)c(-c2ccc3nc(Nc4cnn(C5CC5)c4)ncc3c2)c1 [Compound S15, 4-cyclopropyl-3-(2-((1-cyclopropyl-1H-pyrazol-4-yl)amino)quinazolin-6-yl)-N-(3-(trifluoromethyl)phenyl)benzamide]
[1]
  pIC50: < 6.00
[2]
  activation of MRC-5 induced by TGF-β1: inhibit the activation of MRC-5 induced by TGF-β1 in a dose-dependent manner
